Results on 1 sequence are retold here after publication PMC9674830, “A glutamine-based single α-helix scaffold to target globular proteins” (Nature Communications, 2022).

A short description of the series: Oligomeric state by SEC-MALS and native MS. As to conditions: SEC-MALS (and native MS where stated). In kind it is physicochemical. The text has this: To analyze the origin of this behavior and exploit it for peptide design we studied four peptides of identical amino acid composition but with two potential Glni+4 → Leui interactions (pink arrows in Fig. 1a) at different relative positions. The first such interaction is common to all peptides and the second one is shifted 1 (peptide P1-5), 2 (P2-6), 3 (P3-7), or 5 (P5-9) positions towards the C-terminus. After confirming that they were monomeric under our experimental conditions by size exclusion chromatography coupled to multiple angle light scattering (SEC-MALS) (Supplementary Fig. 1d), we used solution-state nuclear magnetic resonance (NMR) spectroscopy to probe their structural properties by exploiting the quantitative dependence of ^13Cα and ^1Hα NMR chemical shifts on residue-specific helical propensity, where larger ^13Cα and lower ^1Hα shifts indicate higher helicity.
We then used CD spectroscopy to study the secondary structure of peptides containing two and three pairs of concatenated Glni+4 → Leui interactions, (P3-7)2 and (P3-7)3, and obtained that they are highly helical and monomeric (Θ222 nm/Θ208 nm < 1) (Fig. 1c, d). […]
These samples were treated with 400 μL of methanol to precipitate the serum proteins and centrifuged for 30 min at 277 K. The supernatant was filtered and analyzed by HPLC to calculate the percentage of intact peptide in the sample. […]

In the case of “KKPGASLAALQALQALQAAQAAKKY [(P3-7)2, Gln-based single α-helix scaffold peptide]”, the Oligomeric state result was “monomeric”.
